Test results as given in ChEMBL document CHEMBL3616451, “Design and synthesis of 11α-substituted bile acid derivatives as potential anti-tuberculosis agents” (Bioorg Med Chem Lett, 2015).
≈ marks a conversion by molar mass, not a printed value. Calls of active or inactive are those of the source. No cut-off for these calls is given here.

Experiments:
THP-1 = assay: (§1) Cytotoxicity against human THP1 cells after 48 hrs by MTT assay; type: cell-based; conditions: thp-1, 48 h
[1] = as §1; type: cell-based, THP-1; conditions: THP-1 cells
[2] = system: Mycobacterium tuberculosis; assay: Anti-tubercular activity against rifampicin, isoniazid, ethambutol and pyrazinamide-sensitive active phage of Mycobacterium tuberculosis H37Ra ATCC 25177 infected in human THP1 cells by neutral red assay; type: functional, organism-based; conditions: H37Ra ATCC 25177, THP-1
Staphylococcus aureus = assay: Antibacterial activity against Staphylococcus aureus ATCC 29213 assessed as growth inhibition at 30 ug/ml relative to control; type: functional
[3] = system: Mycobacterium tuberculosis; assay: Anti-tubercular activity against rifampicin, isoniazid, ethambutol and pyrazinamide-sensitive Mycobacterium tuberculosis H37Ra ATCC 25177 assessed as growth inhibition at 30 ug/ml by XRMA method relative to control; type: functional; conditions: read-out: GI
[4] = system: Mycobacterium tuberculosis; assay: Anti-tubercular activity against rifampicin, isoniazid, ethambutol and pyrazinamide-sensitive active phage of Mycobacterium tuberculosis H37Ra ATCC 25177 by serial dilution method; type: functional, organism-based
[5] = system: Mycobacterium tuberculosis; assay: Anti-tubercular activity against rifampicin, isoniazid, ethambutol and pyrazinamide-sensitive dormant phage of Mycobacterium tuberculosis H37Ra ATCC 25177 by serial dilution method; type: functional, organism-based
Pseudomonas fluorescens = assay: Antibacterial activity against Pseudomonas fluorescens ATCC 13525 assessed as growth inhibition at 30 ug/ml relative to control; type: functional; conditions: read-out: GI
Escherichia coli = assay: Antibacterial activity against Escherichia coli […] assessed as growth inhibition at 30 ug/ml relative to control; type: functional; conditions: read-out: GI
[6] = Cytotoxicity against human PANC1 cells after 48 hrs by MTT assay; type: cell-based, PANC-1; conditions: for GI50 at 48 h: PANC-1 cells; for GI90: panc-1, 48 h
[7] = system: Mycobacterium tuberculosis; assay: Anti-tubercular activity against rifampicin, isoniazid, ethambutol and pyrazinamide-sensitive Mycobacterium tuberculosis H37Ra ATCC 25177 assessed as growth inhibition at 3 ug/ml by XRMA method relative to control; type: functional; conditions: read-out: GI
[8] = system: Mycobacterium tuberculosis; assay: Anti-tubercular activity against rifampicin, isoniazid, ethambutol and pyrazinamide-sensitive Mycobacterium tuberculosis H37Ra ATCC 25177 assessed as growth inhibition at 10 ug/ml by XRMA method relative to control; type: functional; conditions: read-out: GI
[9] = (§2) Cytotoxicity against human A549 cells after 48 hrs by MTT assay; type: cell-based; conditions: A549 cells
A549 = assay: as §2; type: cell-based; conditions: a549, 48 h
[10] = system: Mycobacterium tuberculosis; assay: Anti-tubercular activity against rifampicin, isoniazid, ethambutol and pyrazinamide-sensitive dormant phage of Mycobacterium tuberculosis H37Ra ATCC 25177 infected in human THP1 cells by neutral red assay; type: functional, organism-based; conditions: H37Ra ATCC 25177, THP-1
Bacillus subtilis = assay: Antibacterial activity against Bacillus subtilis ATCC 23857 assessed as growth inhibition at 30 ug/ml relative to control; type: functional

| SMILES | GI90 (THP-1) | GI50 at 48 h [1] | IC50 [2] | IC90 [2] | inhibition of growth at 30 µg/mL [3] | IC50 [4] | IC90 [4] | IC50 [5] | IC90 [5] | inhibition of growth at 30 µg/mL (Pseudomonas fluorescens) | inhibition of growth at 30 µg/mL (Escherichia coli) | GI50 at 48 h [6] | GI90 [6] | inhibition of growth at 3 µg/mL [7] | inhibition of growth at 10 µg/mL [8] | GI50 at 48 h [9] | GI90 (A549) | IC50 [10] | IC90 [10] | growth inhibition (GI) (Bacillus subtilis) | also measured |
| --- | --- | --- | --- | --- | --- | --- | --- | --- | --- | --- | --- | --- | --- | --- | --- | --- | --- | --- | --- | --- | --- |
| COC(=O)CC[C@@H](C)[C@H]1CC[C@H]2[C@H]3[C@H]([C@H](NC(=O)[C@H]4CCCN4C(=O)OC(C)(C)C)C(=O)[C@]12C)[C@@]1(C)CC[C@@H](OC(C)=O)C[C@H]1C[C@H]3OC(C)=O | > 100 µg/mL | 46 µg/mL (≈ 64.1 µM) | 1.96 µg/mL (≈ 2.73 µM) | 27.3 µg/mL (≈ 38.1 µM) | 94% | 3.62 µg/mL (≈ 5.05 µM) | 27.5 µg/mL (≈ 38.3 µM) | 2.25 µg/mL (≈ 3.14 µM) | 27 µg/mL (≈ 37.7 µM) | 61.5% | 26.8% | 15 µg/mL (≈ 20.9 µM) | > 100 µg/mL | 66% | 80% | 52 µg/mL (≈ 72.5 µM) | > 100 µg/mL | 1.32 µg/mL (≈ 1.84 µM) | 23.8 µg/mL (≈ 33.3 µM) | inactive | growth inhibition (GI) (Staphylococcus aureus): inactive |
| COC(=O)CC[C@@H](C)[C@H]1CC[C@H]2[C@H]3[C@H]([C@H](NC(=O)C(CO)NC(=O)OC(C)(C)C)C(=O)[C@]12C)[C@@]1(C)CC[C@@H](OC(C)=O)C[C@H]1C[C@H]3OC(C)=O (some centres not stated) | > 100 µg/mL | 76.2 µg/mL (≈ 108 µM) | 3.98 µg/mL (≈ 5.63 µM) | 26.9 µg/mL (≈ 38 µM) | 91% | 2.7 µg/mL (≈ 3.82 µM) | 28.9 µg/mL (≈ 40.8 µM) | 6.16 µg/mL (≈ 8.71 µM) | 26.3 µg/mL (≈ 37.2 µM) | 29.9% | 43.2% | > 100 µg/mL | > 100 µg/mL | 68% | 73% | > 100 µg/mL | > 100 µg/mL | 3.44 µg/mL (≈ 4.87 µM) | 26.3 µg/mL (≈ 37.2 µM) | inactive | inhibition of growth at 30 µg/mL (Staphylococcus aureus; read-out: GI): 11.9% |
